Target: T1, Neuraminidase (Derived from Vibrio cholerae) (Vibrio cholerae serotype O1, UniProt P0C6E9)
T1 construct: host or cells: Vibrio cholerae (printed as 'Vibro-Choralie')
Assay: Inhibition activity against neuraminidase (pre-incubation, p-nitrophenyl-α-N-acetyl neuraminic acid hydrolysis, absorbance 405 nm)
Format: biochemical
Details: irreversible inhibitor; pre-incubation 0, 10 or 30 min with 0-0.5 mM, pH 5.0; calculated from inhibition curve (FIG. 3); read-out: inhibition constant (Ki)
Description: Neuraminidase (50 μg) produced by Vibro-Choralie was pre-incubated in 50 mM phosphoric acid-tartaric acid buffer (pH 5.0, 10 μ1) together with the compound 6 (0, 0.05, 0.1, 0.2, and 0.5 mM), after 0, 10 or 30 minutes, 2 μl of the reaction solution was fractionated, respectively. The fractionated and pre-incubated solution was immediately incubated for 5 minutes in 50 mM phosphoric acid-tartaric acid buffer (pH 5.0, 50 μl) using 5 mM p-nitrophenyl-α-N-acetyl neuraminic acid. Then, glycine buffer (pH 11.0, […]) was added to each fractionated solution to stop the reaction. The amount of p-nitrophenol produced by hydrolysis reaction of neuraminidase was calculated by absorbance determination at 405 nm.

T1 sequence (P0C6E9 25-781): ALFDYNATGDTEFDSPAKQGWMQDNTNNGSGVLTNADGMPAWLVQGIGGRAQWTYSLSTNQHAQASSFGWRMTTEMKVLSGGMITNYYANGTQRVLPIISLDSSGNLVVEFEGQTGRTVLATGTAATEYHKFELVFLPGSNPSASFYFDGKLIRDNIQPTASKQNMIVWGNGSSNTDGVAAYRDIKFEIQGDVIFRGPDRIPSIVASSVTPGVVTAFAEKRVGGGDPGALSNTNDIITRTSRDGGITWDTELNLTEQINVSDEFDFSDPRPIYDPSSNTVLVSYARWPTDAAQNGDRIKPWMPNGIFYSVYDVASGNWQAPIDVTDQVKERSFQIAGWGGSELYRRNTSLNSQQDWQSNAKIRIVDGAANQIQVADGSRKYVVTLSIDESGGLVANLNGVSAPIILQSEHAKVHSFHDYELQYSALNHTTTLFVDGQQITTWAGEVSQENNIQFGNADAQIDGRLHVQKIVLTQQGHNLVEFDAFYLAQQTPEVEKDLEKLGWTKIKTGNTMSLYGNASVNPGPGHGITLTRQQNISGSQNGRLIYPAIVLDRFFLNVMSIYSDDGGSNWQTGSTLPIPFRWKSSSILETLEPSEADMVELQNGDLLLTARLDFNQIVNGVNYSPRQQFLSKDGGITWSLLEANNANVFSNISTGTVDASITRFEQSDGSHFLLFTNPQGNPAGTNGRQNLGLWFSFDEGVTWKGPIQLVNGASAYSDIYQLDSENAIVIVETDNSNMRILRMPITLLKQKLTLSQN

`CC(=O)NC1C(O)CC(Oc2ccc(NS(=O)(=O)c3cccc4c(N(C)C)cccc34)cc2C(F)F)(C(=O)O)OC1C(O)C(O)CO` (stereo not shown) [compound 6] gave a Ki of 1900 µM.
